Counter-ions that a name gives are not always drawn. Like-named read-outs stand apart in the source and are kept apart here. Values belong to the compound of their own block, whether it stands above or below them.
Tests used:
[1] = system: STIB 900 strain of Trypanosoma brucei rhodesiense; assay: T. b. r. STIB 900 mouse model; assay type: in vivo; conditions: for responders at 20 mg/kg / responders at 100 mg/kg: Trypanosoma brucei, 1440 h; for responders at 20 mg/kg: read-out: Cures (converted); for responders at 100 mg/kg: read-out: Cures
Description: The activities of compounds 20, 18, 21, 48, 23c, 24c, 5, 4, and 10 against the STIB 900 strain of Trypanosoma brucei rhodesiense (T. b. r.) in a mouse model are shown in Table 3. […] Groups of four mice were infected intraperitoneally with 2×10^5 bloodstream forms of T. b. r. STIB 900 which originates from a patient in Tanzania. On days 3, 4, 5, and 6 post-infection the experimental groups were treated with the indicated compound, either by the intraperitoneal route, or for prodrugs, by the oral route. Usually the highest tolerated dose was used. The highest tolerated dose was determined in a pretoxicological experiment.
Parasitemia of the mice was checked daily up to day 14 post-infection and thereafter 2 times per week up to day 60. One group of mice was not treated and acted as control. Untreated control animals expire between day 7 and 8 post-infection. For relapsing mice, the day of death was recorded and the survival time determined. For the data shown in Table 3, cures reflect the number of mice that survive and are parasite free for 60 days. Survival reflects the average days of survival.
(§1) Testing methods are as described above in Example 17.

[2] = system: Plasmodium falciparum (P. f.); assay: In vitro antiprotozoal activity against P. f.; assay type: cell-based
Description: (§2) In vitro antiprotozoal activities were measured following established protocols. See Ismail, M. A., et al., J. Med. Chem., 46, 4761-4769 (2003); Stephens, C. E., et al., Bioorg. Med. Chem. Lett., 13, 2065-2069 (2003) (in vitro assay against Leishmania donovani).
as §1

L-6 rat mycoblast cells = assay: cells
Description: as §2, §1

[3] = system: Trypanosoma brucei rhodesiense (T. b. r.); assay: In vitro antiprotozoal activity against T. b. r.; assay type: cell-based
Description: as §2, §1

[4] = 20 mg/kg ip, days 3-6 post-infection, average days of survival
[5] = 20 mg/kg ip, days 3-6 post-infection, mice surviving parasite free for 60 days, groups of four
[6] = read-out: CT IC50, Table 1, L-6 cells
[7] = Table 1, k/K = thousand, read-out: T. b. r. IC50
[8] = 100 mg/kg po, days 3-6 post-infection, average days of survival
[9] = 100 mg/kg po, days 3-6 post-infection, mice surviving parasite free for 60 days, groups of four
[10] = Table 2, K = thousand, read-out: T. b. r. IC50
[11] = read-out: CT IC50, Table 4, L-6 cells
[12] = Plasmodium falciparum, Table 1, k/K = thousand
[13] = Rattus norvegicus, L6, read-out: CT IC50
[14] = Trypanosoma brucei, RHODESIENSE, Table 1, k/K = thousand, read-out: T. b. r. IC50
[15] = Rattus norvegicus, L6, read-out: CT IC50, Table 1, L-6 cells

Compound: N=C(N)c1ccc(OCCCCCOc2ccc(C(=N)N)cc2)cc1 [pentamidine, reference compound]
Survival [1, 4]: 42.7 days | responders at 20 mg/kg [1, 5]: 0%

IC50 ([2]; Table 1, k/K = thousand): 0.925 µM | IC50 [3, 7]: > 201 µM
Compound: NC(=NO)c1ccc(-c2ccc(-c3ccc(C(N)=NO)cc3)c(F)c2)cc1 [Compound 24a, 2′-Fluoro-[1,1′;4′,1″]terphenyl-4,4″-bis-N-hydroxycarboxamidine]
IC50 (L-6 rat mycoblast cells; [6]): 29.1 µM

Compound: NC(=NO)c1ccc(-c2ccc(-c3ccc(C(N)=NO)cc3)cc2)cc1 [Compound 18, [1,1′;4′,1″]Terphenyl-4,4″-bis-N-hydroxycarboxamidine]
Survival [1, 8]: 24.75 days | Cures [1, 9]: 0/4 | IC50 ([2]; Table 1, k/K = thousand): > 118 µM | IC50 (L-6 rat mycoblast cells; [6]): > 212 µM | IC50 [3, 7]: 22.8 µM

IC50 ([2]; Table 2, K = thousand): 9.1 µM | IC50 (L-6 rat mycoblast cells): 9.4 µM | IC50 [3, 10]: 13.4 µM
Compound: NC(=NO)c1ccc(-c2ccc(-c3ccc(C(N)=NO)cc3)c3ccccc23)cc1 [Compound 39, Phenyl[1,1′]naphthyl-[4′,1″]phenyl-4,4″-bis-N-hydroxycarboxamidine]

Compound: CON=C(N)c1ccc(-c2ccc(-c3ccc(C(N)=NOC)nc3)cn2)cc1.Cl [Compound 91, Phenyl[1,2′]pyridinyl[5′,5″]pyridinyl-4,2″-bis-N-methoxyamidine hydrochloride salt]
Cures ([1]; 25 mg/kg ip, Table 5): 0/4 | Survival ([1]; 25 mg/kg ip, Table 5): 22.25 days | IC50 ([2]; Table 4): 2.15 µM | IC50 (L-6 rat mycoblast cells; [11]): 12.8 µM | IC50 ([3]; Table 4, read-out: T. b. IC50): 1.98 µM

IC50 [2, 12]: 6.6 µM | IC50 [3, 14]: 67 µM
Compound: N=C(NO)c1ccc(-c2ccc(-c3ccc(C(=N)NO)o3)cc2)cc1 [Compound 3, N-Hydroxy-5-[4′-(N-hydroxyamidino)-biphenyl-4-yl]-furan-2-carboxamidine]
IC50 (L-6 rat mycoblast cells; [13]): 106 µM

IC50 ([2]; Table 1, k/K = thousand): 1.7 µM | IC50 [3, 7]: 142 µM
Compound: CCOC(=O)N=C(N)Nc1ccc(-c2ccc(-c3ccc(NC(N)=NC(=O)OCC)cc3)cc2)cc1 [Compound 50a, 4,4″-Bis(N′-ethoxycarbonyl)-guanidino-[1,1′;4′,1″]terphenyl]
IC50 (L-6 rat mycoblast cells; [6]): > 181 µM

Compound: CC(=O)O.N=C(N)c1ccc(-c2ccc(-c3ccc(C(=N)N)o3)cc2)cc1 [Compound 5, 5-(4′-Amidinobiphenyl-4-yl)-furan-2-carboxamidine acetate salt]
Survival [1, 4]: 21.25 days | responders at 20 mg/kg [1, 5]: 0% | IC50 [2, 12]: 0.001 µM | IC50 (L-6 rat mycoblast cells; [13]): 2 µM | IC50 [3, 14]: 0.005 µM

IC50 ([2]; Table 1, k/K = thousand): 4.2 µM | IC50 [3, 7]: > 51.5 µM
Compound: CON=C(N)c1ccc(-c2ccc(-c3ccc(C(N)=NOC)cc3)c(F)c2)cc1 [Compound 25a, 2′Fluoro-[1,1′;4′,1″]terphenyl-4,4″-bis-methoxycarboxamidine]

Compound: CC(=O)O.N=C(N)c1ccc(-c2ccc(-c3ccc(C(=N)N)cc3)nc2)cc1 [Compound 23c, Phenyl[1,1′]pyridyl[4′,1″]phenyl-4,4″-bis-carboxamidine acetate salt]
Survival [1, 4]: >60 days | Cures [1, 5]: 4/4 | IC50 ([2]; Table 1, k/K = thousand): 0.01 µM | IC50 (L-6 rat mycoblast cells; [6]): 49.9 µM | IC50 [3, 7]: 0.002 µM

Compound: N=C(N)Nc1ccc(-c2ccc(-c3ccc(NC(=N)N)cn3)cc2)nc1 [Compound 55, 1,4-Bis-(5′-guanidinopyridin-2′-yl)phenylene hydrochloride salt]
IC50 [2, 12]: 0.151 µM | IC50 (L-6 rat mycoblast cells; [15]): 152 µM | IC50 [3, 14]: 0.169 µM

IC50 ([2]; Table 1, k/K = thousand): 3.2 µM | IC50 [3, 7]: 34.7 µM
Compound: CONC(=N)c1ccc(-c2ccc(-c3ccc(C(=N)NOC)cc3)nc2)cc1 [Compound 25c, Phenyl[1,1′]pyridyl[4′,1″]phenyl-4,4″-bis-N-methoxycarboxamidine]
IC50 (L-6 rat mycoblast cells; [6]): > 166 µM

IC50 ([2]; Table 1, k/K = thousand): 1.2 µM | IC50 [3, 7]: 82.9 µM
Compound: CON=C(N)c1ccc(-c2ccc(-c3ccc(C(N)=NOC)nc3)cc2)cn1 [Compound 33, 1,4-Bis-[5′-(N-methoxyamidinopyridin-2′-yl)]phenylene]
IC50 (L-6 rat mycoblast cells; [6]): > 158 µM

IC50 ([2]; Table 1, k/K = thousand): 3.8 µM | IC50 [3, 7]: 36.9 µM
Compound: CON=C(N)c1ccc(-c2ccc(-c3ccc(C(N)=NOC)cc3)c(C(F)(F)F)c2)cc1 [Compound 25b, 2′-Trifluoromethyl-[4′,1′;4′,1″]terphenyl-4,4″-bis-methoxycarboxamidine]
IC50 (L-6 rat mycoblast cells; [6]): 42.2 µM

Compound: CN(C)CC(=O)ON=C(N)c1ccc(-c2ccc(-c3ccc(C(N)=NOC(=O)CN(C)C)nc3)cc2)cn1 [Compound 69, 1,4-Bis-{2′-[N-(N′,N′-dimethylaminoacetoxy)amidinopyridin-5′-yl]}-phenylene]
Cures ([1]; 25 mg/kg po, Table 5): 0/4 | Survival ([1]; 25 mg/kg po, Table 5): 28.25 days

Compound: N=C(N)c1ccc(-c2cnc(-c3ccc(C(=N)N)cc3)nc2)cc1 [Compound 27, 2,5-Bis-(4′-amidinophenyl)-pyrimidine]
IC50 [2, 12]: 0.0005 µM | IC50 (L-6 rat mycoblast cells; [15]): 40.9 µM

Compound: Cl.NC(=NO)c1ccc(-c2ccc(-c3ccc(C(N)=NO)nc3)cc2)cn1 [Compound 67, 1,4-Bis-[2′-(N-hydroxyamidinopyridin-5′-yl)]-phenylene hydrochloride salt]
Cures ([1]; 25 mg/kg po, Table 5): 0/4 | Survival ([1]; 25 mg/kg po, Table 5): 16.25 days | IC50 ([2]; Table 1, k/K = thousand): 2.4 µM | IC50 (L-6 rat mycoblast cells; [6]): 8.1 µM | IC50 [3, 7]: 12 µM

IC50 ([2]; Table 1, k/K = thousand): 8.9 µM | IC50 [3, 7]: 7.5 µM
Compound: CCOC(=O)N=C(NC)Nc1ccc(-c2ccc(-c3ccc(NC(=NC(=O)OCC)NC)cc3)cc2)cc1 [Compound 50b, 4,4″-Bis(N′-ethoxycarbonyl-N″-methyl)-guanidino-[1,1′;4′,1″]terphenyl]
IC50 (L-6 rat mycoblast cells; [6]): 5.7 µM

Compound: CONC(=N)c1ccc(-c2ccc(-c3ccc(C(=N)NOC)o3)cc2)cc1 [Compound 4, N-Methoxy-5-[4′-(N-methoxyamidino)-biphenyl-4-yl]-furan-2-carboxamidine]
Survival [1, 8]: 29 days | responders at 100 mg/kg [1, 9]: 0% | IC50 [2, 12]: 1.6 µM | IC50 (L-6 rat mycoblast cells; [13]): > 206 µM | IC50 [3, 14]: 24 µM

IC50 ([2]; Table 1, k/K = thousand): 3.1 µM | IC50 [3, 7]: 29.9 µM
Compound: NC(=NO)c1ccc(-c2ccc(-c3ccc(C(N)=NO)cc3)c(C(F)(F)F)c2)cc1 [Compound 24b, 2′-Trifluoromethyl-[1,1′;4′,1″]terphenyl-4,4″-bis-N-hydroxycarboxamidine]
IC50 (L-6 rat mycoblast cells; [6]): 13.3 µM

Compound: N=C(N)c1ccc(Cc2ccc(-c3ccc(C(=N)N)cc3)nc2)cc1 [Compound 36a, 2-(4′-Amidinophenyl)-5-(4″-amidinobenzyl)pyridine acetate salt]
IC50 ([2]; Table 1, k/K = thousand): 0.011 µM | IC50 (L-6 rat mycoblast cells; [6]): 18.1 µM | IC50 [3, 7]: 0.041 µM

IC50 ([2]; Table 1, k/K = thousand, hydrochloride salt): 5.5 µM | IC50 ([2]; Table 4): 0.637 µM | IC50 ([3]; Table 1, k/K = thousand, hydrochloride salt, read-out: T. b. r. IC50): 141 µM | IC50 ([3]; Table 4, read-out: T. b. IC50): 4.57 µM
Compound: CON=C(N)c1ccc(-c2ccc(-c3ccc(C(N)=NOC)nc3)cc2)cn1 [Compound 68, 1,4-Bis-[2′-(N-methoxyamidinopyridin-5′-yl)]-phenylene hydrochloride salt]
IC50 (L-6 rat mycoblast cells; read-out: CT IC50, Table 1, L-6 cells, hydrochloride salt): > 194 µM | IC50 (L-6 rat mycoblast cells; [11]): > 193 µM

Compound: CON=C(N)c1ccc(-c2ccc(-c3ccc(C(N)=NOC)cc3)cc2)cc1 [Compound 21, [1,1′;4′,1″]Terphenyl-4,4″-bis-N-methoxycarboxamidine]
Survival [1, 8]: 20.75 days | responders at 100 mg/kg [1, 9]: 0% | IC50 [2, 12]: 0.371 µM | IC50 (L-6 rat mycoblast cells; [13]): 118 µM | IC50 [3, 14]: 13.8 µM

Compound: N=C(NO)c1ccc(-c2ccc(-c3ccc(C(=N)NO)cc3)nc2)cc1 [Compound 24c, Phenyl[1,1′]pyridyl[4′,1″]phenyl-4,4″-bis-N-hydroxycarboxamidine]
Survival [1, 8]: >35.75 days | Cures [1, 9]: 1/4 | IC50 ([2]; Table 1, k/K = thousand): 7.6 µM | IC50 (L-6 rat mycoblast cells; [6]): > 184 µM | IC50 [3, 7]: 9.3 µM

IC50 ([2]; Table 1, k/K = thousand): 4.5 µM | IC50 [3, 7]: 14.2 µM
Compound: CCOC(=O)N=C(Nc1ccc(-c2ccc(-c3ccc(NC(=NC(=O)OCC)NC(C)C)cc3)cc2)cc1)NC(C)C [Compound 50c, 4,4″-Bis(N′-ethoxycarbonyl-N″-isopropyl)-guanidino-[1,1′;4′,1″]terphenyl]
IC50 (L-6 rat mycoblast cells; [6]): 5.3 µM

IC50 ([2]; Table 1, k/K = thousand): 0.007 µM | IC50 [3, 7]: 0.018 µM
Compound: CNC(=N)Nc1ccc(-c2ccc(-c3ccc(NC(=N)NC)cc3)cc2)cc1 [Compound 51a, 4,4″-Bis(N′-methyl)-guanidino-[1,1′;4′,1″]terphenyl]
IC50 (L-6 rat mycoblast cells; [6]): 65.1 µM

IC50 ([2]; Table 2, K = thousand): 3.9 µM | IC50 (L-6 rat mycoblast cells): 16.2 µM | IC50 [3, 10]: 29.5 µM
Compound: CON=C(N)c1ccc(-c2ccc(-c3ccc(C(N)=NOC)cc3)c3ccccc23)cc1 [Compound 40, Phenyl[1,1′]naphthyl-[4′,1″]phenyl-4,4″-bis-N-methoxycarboxamidine]
